Columns and labels:
A549 = assay: Antiproliferative activity against human A549 cells assessed as cell growth inhibition measured after 48 hrs by MTT assay; assay type: functional, cell-based; settings: A549, 48 h
SK-OV-3 = assay: Antiproliferative activity against human SKOV3 cells assessed as cell growth inhibition measured after 48 hrs by MTT assay; assay type: functional, cell-based; settings: SK-OV-3, 48 h
L02 = assay: Cytotoxicity against human HL7702 cells assessed as cell growth inhibition measured after 48 hrs by MTT assay; assay type: cell-based; settings: L02, 48 h
SMMC-7721 = assay: Antiproliferative activity against human SMMC7721 cells assessed as cell growth inhibition measured after 48 hrs by MTT assay; assay type: functional, cell-based; settings: SMMC-7721, 48 h
HepG2 = assay: Antiproliferative activity against human HepG2 cells assessed as cell growth inhibition measured after 48 hrs by MTT assay; assay type: functional, cell-based; settings: HepG2, 48 h
T-24 = assay: Antiproliferative activity against human T24 cells assessed as cell growth inhibition measured after 48 hrs by MTT assay; assay type: functional, cell-based; settings: T-24, 48 h

Compound | IC50 (A549) [µM] | IC50 (SK-OV-3) [µM] | IC50 (L02) [µM] | IC50 (SMMC-7721) [µM] | IC50 (HepG2) [µM] | IC50 (T-24) [µM]
O=C1c2cccc3cc([N+](=O)[O-])cc(c23)C(=O)N1Nc1ccccc1 | 32.1 | 61.1 | 59.1 | > 100 | 38.7 | 15.1
O=C1c2cccc3cc([N+](=O)[O-])cc(c23)C(=O)N1c1nc2ccccc2[nH]1 | 36.9 | 60.5 | > 100 | 54.1 | 50.4 | 54.9

— ChEMBL document CHEMBL4627310, “Design, synthesis and biological evaluation of 3-nitro-1,8-naphthalimides as potential antitumor agents” (Bioorg Med Chem Lett, 2020)
